Tests used:
Experiment in all cases: KiNativ kinome profiling in PANC-1 lysate
Assay type in all cases: binding
DRAK1 = biological target: T1, DRAK1 (Homo sapiens, UniProt Q9UEE5); conditions: Lys2
T1 construct: endogenous in cells; host or cells: PANC-1 lysate
Excerpt: (§1) To assess target engagement and selectivity, we opted to conduct a kinome screen (KiNativ) in PANC-1 cell lysates. This chemical proteomics (chemoproteomics) methodology allows for the evaluation of small-molecule binding to protein kinases in native systems such as cell lysates. KiNativ utilizes a soluble chemical probe comprising ATP linked to biotin through an acyl-phosphate bond. The probe covalently modifies conserved lysine residues found in the ATP binding site of essentially all protein kinases (Figure 2A). To profile a kinase inhibitor, cell lysates are treated with a vehicle control or inhibitor prior to addition of the desthiobiotin ATP probe. The ATP probe occupies the ATP binding site in the kinase, which enables the conserved lysines to be biotinylated. […] The cell lysates are digested with a protease (trypsin), biotinylated peptides are affinity-enriched on streptavidin beads, and the labeled peptides are analyzed by liquid chromatography–tandem MS (Figure 2B). If an inhibitor binds to a kinase, it competes with the ATP, thus resulting in a loss of that kinase-associated peptide signal, allowing for the quantitative measurement of inhibitor binding. Unlike recombinant enzyme assays, KiNativ IC50 values are a direct measure of active site binding instead of enzymatic activity.
(§2) Kinome profiling quantified the activity of 51-106 against >300 kinases in the PANC-1 cells. The results summarized in Figure 2C are the average of duplicate control and duplicate treated samples with 5 μM of 51-106 or DMSO.
(§3) KiNativ assay with 51-106.
(§4) ATP Loop: ATP binding loop
(§5) Activation Loop: Activation loop
(§6) ATP: ATP site in non-canonical kinase (e.g. lipid kinase)
(§7) Protein Kinase Domain: Other lysine within kinase domain, possibly not in ATP binding site
(§8) Other: Labeling of residue outside of the protein kinase domain, possibly not in ATP binding site
(§9) No change. NB = No Binding (≤ 0)
(§10) >100% increase in MS signal (>2 fold increase)
(§11) Data points inhibited […] & not considered significant are left uncolored
(§12) Note: This KiNativ dataset is the result of an analysis of duplicate treated samples and control samples.
(§13) The % changes in MS signals being reported are statistically significant (Student T -test score < 0.04)

CDK4 = biological target: T2, CDK4 (Homo sapiens, UniProt P11802); conditions: Lys2
T2 construct: endogenous in cells; host or cells: PANC-1 cell lysate
T2 sequence (P11802 whole entry): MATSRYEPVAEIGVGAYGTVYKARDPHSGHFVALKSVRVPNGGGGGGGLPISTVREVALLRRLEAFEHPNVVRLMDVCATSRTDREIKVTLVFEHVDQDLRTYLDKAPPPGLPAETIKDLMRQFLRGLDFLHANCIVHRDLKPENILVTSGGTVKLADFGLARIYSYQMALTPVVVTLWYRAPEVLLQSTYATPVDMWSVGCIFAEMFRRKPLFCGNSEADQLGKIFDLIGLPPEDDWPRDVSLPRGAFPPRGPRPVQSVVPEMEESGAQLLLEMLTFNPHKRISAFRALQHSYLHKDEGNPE
Excerpt: as §1, §2, §3, §4, §5, §6, §7, §8, §9, §10, §11, §12, §13

CK1d, CK1e = conditions: 5 µM; Lys2; DVKPDNFLMGLGKK
Excerpt: as §1, §2, §3, §4, §5, §6, §7, §8, §9, §10, §11, §12, §13

NEK4 = biological target: T3, NEK4 (Homo sapiens, UniProt P51957); conditions: Lys2
T3 construct: endogenous in cells; host or cells: PANC-1 cell lysate
Excerpt: as §1, §2, §3, §4, §5, §6, §7, §8, §9, §10, §11, §12, §13

HER3/ErbB3 = biological target: T4, HER3/ErbB3 (Homo sapiens, UniProt P21860)
T4 construct: we opted to conduct a kinome screen (KiNativ) in PANC-1 cell lysates; endogenous in cells; host or cells: PANC-1 cell lysate
T4 sequence (P21860 20-1342): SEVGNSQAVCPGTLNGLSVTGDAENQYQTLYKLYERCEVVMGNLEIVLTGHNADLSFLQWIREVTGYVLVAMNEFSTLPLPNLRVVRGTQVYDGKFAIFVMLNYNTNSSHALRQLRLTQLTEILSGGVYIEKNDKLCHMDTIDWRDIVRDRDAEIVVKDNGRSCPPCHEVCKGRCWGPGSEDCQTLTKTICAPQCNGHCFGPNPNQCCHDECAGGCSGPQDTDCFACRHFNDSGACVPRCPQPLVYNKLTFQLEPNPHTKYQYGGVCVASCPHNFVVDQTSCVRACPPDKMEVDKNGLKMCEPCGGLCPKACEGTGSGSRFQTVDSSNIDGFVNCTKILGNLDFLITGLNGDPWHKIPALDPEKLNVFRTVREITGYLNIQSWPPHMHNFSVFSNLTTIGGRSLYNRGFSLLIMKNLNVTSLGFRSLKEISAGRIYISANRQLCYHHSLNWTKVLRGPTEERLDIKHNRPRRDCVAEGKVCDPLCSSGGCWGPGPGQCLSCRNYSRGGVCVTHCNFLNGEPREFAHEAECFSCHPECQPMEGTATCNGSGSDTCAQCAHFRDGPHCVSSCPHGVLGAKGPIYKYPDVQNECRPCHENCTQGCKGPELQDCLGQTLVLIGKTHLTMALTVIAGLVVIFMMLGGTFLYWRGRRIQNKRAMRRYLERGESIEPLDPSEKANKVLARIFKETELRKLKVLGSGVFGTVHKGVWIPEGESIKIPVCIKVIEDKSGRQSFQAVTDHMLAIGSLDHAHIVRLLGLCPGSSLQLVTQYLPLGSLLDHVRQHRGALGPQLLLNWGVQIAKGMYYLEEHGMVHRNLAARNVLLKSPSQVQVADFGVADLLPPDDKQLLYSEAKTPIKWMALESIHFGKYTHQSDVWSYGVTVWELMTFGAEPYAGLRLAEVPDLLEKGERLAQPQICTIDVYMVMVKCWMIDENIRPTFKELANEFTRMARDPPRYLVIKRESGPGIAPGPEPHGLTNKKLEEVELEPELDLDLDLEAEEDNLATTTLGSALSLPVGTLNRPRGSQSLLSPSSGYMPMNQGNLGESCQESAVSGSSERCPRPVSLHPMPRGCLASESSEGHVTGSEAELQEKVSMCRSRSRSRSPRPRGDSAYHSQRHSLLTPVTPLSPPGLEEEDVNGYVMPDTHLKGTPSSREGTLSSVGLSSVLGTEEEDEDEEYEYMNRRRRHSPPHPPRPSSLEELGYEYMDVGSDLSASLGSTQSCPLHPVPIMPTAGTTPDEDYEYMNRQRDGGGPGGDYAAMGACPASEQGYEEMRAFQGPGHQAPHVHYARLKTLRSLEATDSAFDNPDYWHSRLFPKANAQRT
Excerpt: as §1, §2, §3, §4, §5, §6, §7, §8, §9, §10, §11, §12, §13

SNRK = biological target: T5, SNRK (Homo sapiens, UniProt Q9NRH2)
T5 construct: endogenous in cells; host or cells: PANC-1 cell lysate
T5 sequence (Q9NRH2 whole entry): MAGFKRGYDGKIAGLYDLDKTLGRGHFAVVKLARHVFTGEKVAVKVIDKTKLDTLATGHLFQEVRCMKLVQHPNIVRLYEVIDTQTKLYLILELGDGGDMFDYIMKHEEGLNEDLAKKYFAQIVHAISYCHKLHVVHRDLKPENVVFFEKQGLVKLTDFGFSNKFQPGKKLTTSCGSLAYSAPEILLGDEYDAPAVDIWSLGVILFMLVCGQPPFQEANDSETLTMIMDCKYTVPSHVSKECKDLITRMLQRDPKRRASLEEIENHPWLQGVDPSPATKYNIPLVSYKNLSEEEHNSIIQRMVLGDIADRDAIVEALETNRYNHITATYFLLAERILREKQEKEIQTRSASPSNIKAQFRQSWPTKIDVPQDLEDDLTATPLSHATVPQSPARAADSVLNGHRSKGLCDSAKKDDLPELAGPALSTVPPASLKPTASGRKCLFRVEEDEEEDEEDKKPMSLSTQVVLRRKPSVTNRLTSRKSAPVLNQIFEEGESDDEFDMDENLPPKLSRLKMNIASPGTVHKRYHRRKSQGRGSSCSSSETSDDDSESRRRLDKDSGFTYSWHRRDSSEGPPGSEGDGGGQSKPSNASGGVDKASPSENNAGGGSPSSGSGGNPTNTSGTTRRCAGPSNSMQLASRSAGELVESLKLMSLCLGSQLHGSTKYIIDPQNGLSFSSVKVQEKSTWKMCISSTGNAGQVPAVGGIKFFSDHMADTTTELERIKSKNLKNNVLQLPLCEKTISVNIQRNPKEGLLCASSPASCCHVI
Excerpt: as §1, §2, §3, §4, §5, §6, §7, §8, §9, §10, §11, §12, §13

Wnk1, Wnk2 = conditions: 5 µM; ATP Loop; GSFKTVYK
Excerpt: as §1, §2, §3, §4, §5, §6, §7, §8, §9, §10, §11, §12, §13

MET = biological target: T6, MET (Homo sapiens, UniProt P08581); conditions: ATP Loop
T6 construct: endogenous in cells; host or cells: PANC-1
Excerpt: as §1, §2, §3, §4, §5, §6, §7, §8, §9, §10, §11, §12, §13

MST1 = biological target: T7, MST1 (Homo sapiens, UniProt Q13043); conditions: Lys1
T7 construct: endogenous in cells; host or cells: PANC-1
Excerpt: as §1, §2, §3, §4, §5, §6, §7, §8, §9, §10, §11, §12, §13

RSK2 domain1 = biological target: T8, RSK2 domain1 (Homo sapiens, UniProt P51812)
T8 construct: endogenous in cells; host or cells: PANC-1 cell lysate
T8 sequence (P51812 whole entry, the tested form may be a part): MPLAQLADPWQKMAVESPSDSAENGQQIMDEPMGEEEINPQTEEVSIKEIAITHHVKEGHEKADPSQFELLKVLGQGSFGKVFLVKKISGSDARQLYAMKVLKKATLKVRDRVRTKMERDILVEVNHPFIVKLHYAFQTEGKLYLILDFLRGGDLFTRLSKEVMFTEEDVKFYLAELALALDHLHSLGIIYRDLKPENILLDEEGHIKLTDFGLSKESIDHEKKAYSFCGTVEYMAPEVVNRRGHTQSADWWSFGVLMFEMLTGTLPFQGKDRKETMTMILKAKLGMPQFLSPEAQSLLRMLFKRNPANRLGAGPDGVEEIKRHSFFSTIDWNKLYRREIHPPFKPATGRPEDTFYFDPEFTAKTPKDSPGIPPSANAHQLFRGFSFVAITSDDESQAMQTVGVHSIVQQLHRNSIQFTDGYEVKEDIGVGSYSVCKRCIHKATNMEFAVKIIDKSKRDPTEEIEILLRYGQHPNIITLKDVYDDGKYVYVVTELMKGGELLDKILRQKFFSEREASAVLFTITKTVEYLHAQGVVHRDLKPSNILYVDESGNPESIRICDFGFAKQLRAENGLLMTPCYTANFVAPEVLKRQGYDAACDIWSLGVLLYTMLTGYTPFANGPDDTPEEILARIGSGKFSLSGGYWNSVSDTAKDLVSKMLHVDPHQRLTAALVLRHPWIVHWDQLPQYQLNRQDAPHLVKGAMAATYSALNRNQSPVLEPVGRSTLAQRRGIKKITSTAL
Excerpt: as §1, §2, §3, §4, §5, §6, §7, §8, §9, §10, §11, §12, §13

IKKb = biological target: T9, IKKb (Homo sapiens, UniProt O14920)
T9 construct: we opted to conduct a kinome screen (KiNativ) in PANC-1 cell lysates; endogenous in cells; host or cells: PANC-1 cell lysate
T9 sequence (O14920 1-756): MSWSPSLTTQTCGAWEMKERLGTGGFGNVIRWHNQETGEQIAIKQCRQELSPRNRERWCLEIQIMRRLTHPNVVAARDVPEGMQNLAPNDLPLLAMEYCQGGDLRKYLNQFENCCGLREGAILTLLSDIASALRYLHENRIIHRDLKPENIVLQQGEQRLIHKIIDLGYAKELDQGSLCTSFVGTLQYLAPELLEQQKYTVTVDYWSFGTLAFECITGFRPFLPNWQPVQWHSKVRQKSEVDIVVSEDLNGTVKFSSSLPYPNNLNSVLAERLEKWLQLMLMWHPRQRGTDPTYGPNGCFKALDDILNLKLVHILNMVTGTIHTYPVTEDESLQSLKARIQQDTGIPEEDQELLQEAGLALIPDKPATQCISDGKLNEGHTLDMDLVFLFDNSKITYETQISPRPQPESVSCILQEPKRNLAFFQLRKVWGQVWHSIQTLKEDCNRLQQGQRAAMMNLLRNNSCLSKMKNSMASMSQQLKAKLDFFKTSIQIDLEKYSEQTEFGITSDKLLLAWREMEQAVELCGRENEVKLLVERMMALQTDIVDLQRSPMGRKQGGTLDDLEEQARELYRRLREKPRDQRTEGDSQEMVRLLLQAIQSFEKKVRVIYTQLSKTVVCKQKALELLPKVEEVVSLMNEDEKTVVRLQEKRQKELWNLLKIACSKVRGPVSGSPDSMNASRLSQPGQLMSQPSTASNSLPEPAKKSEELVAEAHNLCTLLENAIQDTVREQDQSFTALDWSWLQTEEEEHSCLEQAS
Excerpt: as §1, §2, §3, §4, §5, §6, §7, §8, §9, §10, §11, §12, §13

TAO2 = biological target: T10, TAO2 (Homo sapiens, UniProt Q9UL54); conditions: Lys2
T10 construct: endogenous in cells; host or cells: PANC-1 cell lysate
Excerpt: as §1, §2, §3, §4, §5, §6, §7, §8, §9, §10, §11, §12, §13

JAK1 domain2 = biological target: T11, JAK1 domain2 (Homo sapiens, UniProt P23458)
T11 construct: we opted to conduct a kinome screen (KiNativ) in PANC-1 cell lysates; endogenous in cells; host or cells: PANC-1 cell lysate
T11 sequence (P23458 whole entry, the tested form may be a part): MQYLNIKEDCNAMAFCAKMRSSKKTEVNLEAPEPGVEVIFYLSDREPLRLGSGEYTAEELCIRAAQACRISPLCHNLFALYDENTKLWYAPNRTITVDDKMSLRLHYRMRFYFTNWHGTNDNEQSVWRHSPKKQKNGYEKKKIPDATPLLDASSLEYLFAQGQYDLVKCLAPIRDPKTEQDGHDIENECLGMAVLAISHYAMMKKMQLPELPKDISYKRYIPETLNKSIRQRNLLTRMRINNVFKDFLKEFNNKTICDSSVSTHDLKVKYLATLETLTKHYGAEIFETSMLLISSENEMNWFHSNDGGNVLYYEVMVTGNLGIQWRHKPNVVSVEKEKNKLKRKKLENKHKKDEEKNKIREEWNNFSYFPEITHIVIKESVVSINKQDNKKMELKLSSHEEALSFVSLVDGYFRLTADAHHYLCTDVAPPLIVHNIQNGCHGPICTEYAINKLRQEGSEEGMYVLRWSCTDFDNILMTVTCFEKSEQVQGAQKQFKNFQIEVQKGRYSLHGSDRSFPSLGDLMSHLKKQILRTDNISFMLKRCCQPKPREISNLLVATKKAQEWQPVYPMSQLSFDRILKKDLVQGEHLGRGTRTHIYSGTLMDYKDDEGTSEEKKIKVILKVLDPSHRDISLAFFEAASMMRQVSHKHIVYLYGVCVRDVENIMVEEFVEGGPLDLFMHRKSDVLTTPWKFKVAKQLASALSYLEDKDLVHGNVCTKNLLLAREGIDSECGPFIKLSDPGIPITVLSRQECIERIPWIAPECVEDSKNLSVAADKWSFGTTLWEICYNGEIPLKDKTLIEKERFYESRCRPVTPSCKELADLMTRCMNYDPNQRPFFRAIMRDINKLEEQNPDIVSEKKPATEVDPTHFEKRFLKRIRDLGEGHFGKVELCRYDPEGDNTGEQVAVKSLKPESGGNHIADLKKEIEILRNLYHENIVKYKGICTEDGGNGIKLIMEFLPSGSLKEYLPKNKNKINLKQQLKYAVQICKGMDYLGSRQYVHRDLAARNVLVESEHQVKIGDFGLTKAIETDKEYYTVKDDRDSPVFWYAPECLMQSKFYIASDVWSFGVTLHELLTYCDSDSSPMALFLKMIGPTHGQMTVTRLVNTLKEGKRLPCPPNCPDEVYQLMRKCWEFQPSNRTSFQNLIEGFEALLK
Excerpt: as §1, §2, §3, §4, §5, §6, §7, §8, §9, §10, §11, §12, §13

FYN, SRC, YES = conditions: 5 µM; ATP Loop; QGAKFPIKWTAPEAALYGR
Excerpt: as §1, §2, §3, §4, §5, §6, §7, §8, §9, §10, §11, §12, §13

PCTAIRE2, PCTAIRE3 = conditions: 5 µM; Lys1; SKLTENLVALKEIR
Excerpt: as §1, §2, §3, §4, §5, §6, §7, §8, §9, §10, §11, §12, §13

EphB2 = biological target: T12, EphB2 (Homo sapiens, UniProt P29323); conditions: ATP Loop
T12 construct: endogenous in cells; host or cells: PANC-1 lysate
Excerpt: as §1, §2, §3, §4, §5, §6, §7, §8, §9, §10, §11, §12, §13

T1 sequence (Q9UEE5 whole entry): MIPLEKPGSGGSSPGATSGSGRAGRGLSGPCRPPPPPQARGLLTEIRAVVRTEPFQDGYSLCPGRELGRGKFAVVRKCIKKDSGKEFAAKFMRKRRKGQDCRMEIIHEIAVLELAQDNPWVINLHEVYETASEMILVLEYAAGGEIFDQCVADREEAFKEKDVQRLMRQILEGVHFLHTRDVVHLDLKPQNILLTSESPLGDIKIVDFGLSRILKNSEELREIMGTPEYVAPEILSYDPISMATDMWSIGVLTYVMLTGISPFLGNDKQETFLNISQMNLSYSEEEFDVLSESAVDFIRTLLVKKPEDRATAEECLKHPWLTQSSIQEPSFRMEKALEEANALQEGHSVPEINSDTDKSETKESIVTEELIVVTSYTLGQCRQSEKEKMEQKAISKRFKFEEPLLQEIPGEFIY

For `Cn1cc(-c2cnc3ccc(NC(=O)Nc4ccc(F)c(C(F)(F)F)c4)cc3n2)cn1` [51-106, 1-(4-Fluoro-3-(trifluoromethyl)phenyl)-3-(3-(1-methyl-1H-pyrazol-4-yl)quinoxalin-6-yl)urea], the inhibition at 5 µM (DRAK1) was at most 0%, the inhibition at 5 µM (CDK4) was 3.2% and the “% Inhibition” value (CK1d, CK1e) was “NB (NB = No Binding (≤ 0))”. For the same compound, the inhibition at 5 µM (NEK4) was 5.8%, the inhibition at 5 µM (HER3/ErbB3; ATP Loop, SPSQVQVADFGVADLLPPDDKQLLYSEAKTPIK) was 2% and the inhibition at 5 µM (HER3/ErbB3; Lys1, GVWIPEGESIKIPVCIKVIEDK) was at most 0%. The inhibition at 5 µM (SNRK; Lys1, VAVKVIDK) was at most 0%, the inhibition at 5 µM (SNRK; Lys2, DLKPENVVFFEK) was 0.4% and the “% Inhibition” value (Wnk1, Wnk2) was “NB (NB = No Binding (≤ 0))”. The inhibition at 5 µM (MET) was 8.3%, the inhibition at 5 µM (MST1) was at most 0% and the inhibition at 5 µM (RSK2 domain1; ATP Loop, LTDFGLSKESIDHEKK) was at most 0%. It also gave an inhibition at 5 µM (RSK2 domain1; Lys1, QLYAMKVLK) of 23.6%, an inhibition at 5 µM (IKKb; Lys1, WHNQETGEQIAIKQCR) of 0.1% and an inhibition at 5 µM (IKKb; Lys2, DLKPENIVLQQGEQR) of at most 0%. For the same compound, the “inhibition of IKKβ (in words)” value (IKKb; 5 μM, PANC-1 lysate) was “not inhibited”, the inhibition at 5 µM (TAO2) was 5.5% and the “% Inhibition” value (JAK1 domain2; 5 µM, ATP Loop, IGDFGLTKAIETDKEYYTVK) was “NB (NB = No Binding (≤ 0))”. For the same compound, the inhibition at 5 µM (JAK1 domain2; Lys1, […]) was at most 0%, the “% Inhibition” value (FYN, SRC, YES) was 14.0% and the “% Inhibition” value (PCTAIRE2, PCTAIRE3) was “NB (NB = No Binding (≤ 0))”. For the same compound, the inhibition at 5 µM (EphB2) was at most 0%.

From article PMC12073402, “A Selective MAP3K1 Inhibitor Facilitates Discovery of NPM1 as a Member of the Network” (Molecules, 2025)
